Laboratory results published in patent publication US8686050B2, “Diglycidic ether derivative therapeutics and methods for their use” (British Columbia Cancer Agency Branch, priority 2008, dated 2014).
“Also recorded” adds a separate entry of the source. Where a name gives a salt, the structure may show the parent alone.

Legend:
[1] = biological target: T1, progesterone receptor (PR) (Homo sapiens, UniProt P06401); assay: PRE-luciferase reporter, steroid receptor specificity; assay type: cell-based; details: LNCaP cells transfected with PR, steroid 10 nM; 185-9-2 5 μg/ml, bicalutamide 10 μM
T1 construct: Cells were co-transfected with expression plasmids for full-length hGR, PRβ and the relative reporter; expressed in transfected cells; host or cells: LNCaP
T1 sequence (P06401 1-933): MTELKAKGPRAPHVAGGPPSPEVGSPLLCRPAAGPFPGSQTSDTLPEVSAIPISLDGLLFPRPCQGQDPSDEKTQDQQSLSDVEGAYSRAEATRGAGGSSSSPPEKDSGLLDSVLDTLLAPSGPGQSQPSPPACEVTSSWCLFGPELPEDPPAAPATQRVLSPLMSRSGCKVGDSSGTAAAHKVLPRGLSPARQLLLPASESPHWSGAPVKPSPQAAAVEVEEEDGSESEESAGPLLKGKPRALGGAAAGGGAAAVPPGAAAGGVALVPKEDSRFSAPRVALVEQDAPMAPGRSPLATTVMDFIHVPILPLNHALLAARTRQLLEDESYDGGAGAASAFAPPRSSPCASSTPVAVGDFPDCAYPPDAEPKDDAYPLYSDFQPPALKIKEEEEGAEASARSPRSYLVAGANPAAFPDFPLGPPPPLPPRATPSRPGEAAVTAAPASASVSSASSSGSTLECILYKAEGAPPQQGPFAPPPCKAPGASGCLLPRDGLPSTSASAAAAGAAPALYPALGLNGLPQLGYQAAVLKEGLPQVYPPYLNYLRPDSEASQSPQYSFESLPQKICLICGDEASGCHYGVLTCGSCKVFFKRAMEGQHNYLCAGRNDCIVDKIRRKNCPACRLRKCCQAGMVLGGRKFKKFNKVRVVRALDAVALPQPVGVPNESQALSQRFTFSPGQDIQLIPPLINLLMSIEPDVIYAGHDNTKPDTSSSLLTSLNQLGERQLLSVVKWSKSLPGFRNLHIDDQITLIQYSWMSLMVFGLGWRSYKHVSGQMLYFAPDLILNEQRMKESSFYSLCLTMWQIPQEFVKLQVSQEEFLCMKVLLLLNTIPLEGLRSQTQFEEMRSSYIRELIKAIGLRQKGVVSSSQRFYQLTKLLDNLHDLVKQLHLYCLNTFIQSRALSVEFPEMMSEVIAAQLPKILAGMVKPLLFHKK
Description: Sequence similarities of amino acids in the AR with related human steroid receptors PR and glucocorticoid receptor (GR) are significant in some domains such as the DBD. The AR NTD shares less than 15% homology with the PR and GR, but these receptors interact with some of the same proteins (eg., SRC-1 and CBP). […] Cells were co-transfected with expression plasmids for full-length hGR, PRβ and the relative reporter (i.e., pGR-Luc or PRE-E1b-Luc reporters). Cells were then treated with ethanol vehicle, dexamethasone (GR), 4-pregnene-3,20 dione (progesterone) (PR) followed by measurement of luciferase activity. […] Some antiandrogens currently used in the clinic have progestational and glucocorticoidal activities. In adult males, the role of the PR activity is unclear.

[2] = biological target: T2, VP16-ARTAD and Gal4-ARLBD (Homo sapiens, UniProt P10275); assay: N/C interaction, mammalian two-hybrid in CV1 cells; assay type: cell-based; details: R1881, 24 hr, 185-9-2 10 μg/ml, bicalutamide 10 μM
T2 construct: amino acids 1-565 of the AR NTD fused to VP16 at the N-terminus; the LBD of the AR (amino acids 628-919; Gal4-ARLBD; the C terminus); expressed in transfected cells; host or cells: CV1
T2 sequence (P10275 1-565): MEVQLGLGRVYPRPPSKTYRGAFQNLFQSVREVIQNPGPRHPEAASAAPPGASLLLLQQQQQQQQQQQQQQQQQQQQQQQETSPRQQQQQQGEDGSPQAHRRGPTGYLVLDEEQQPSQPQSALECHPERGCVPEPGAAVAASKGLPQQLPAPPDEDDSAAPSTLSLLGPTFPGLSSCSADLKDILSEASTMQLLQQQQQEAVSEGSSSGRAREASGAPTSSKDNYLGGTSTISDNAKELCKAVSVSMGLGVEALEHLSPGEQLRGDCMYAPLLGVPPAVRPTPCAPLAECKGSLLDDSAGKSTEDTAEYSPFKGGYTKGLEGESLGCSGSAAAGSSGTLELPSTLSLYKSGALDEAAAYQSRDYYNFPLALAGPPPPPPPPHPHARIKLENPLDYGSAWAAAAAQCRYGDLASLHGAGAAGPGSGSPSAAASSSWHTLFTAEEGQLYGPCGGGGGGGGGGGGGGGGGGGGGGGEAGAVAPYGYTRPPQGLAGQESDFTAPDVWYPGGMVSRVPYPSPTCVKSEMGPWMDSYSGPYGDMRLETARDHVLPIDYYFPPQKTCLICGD

VEGF = VEGF staining of harvested LNCaP xenografts; assay type: in vivo, mice; details: harvested at day 25 from castrated hosts
Source text: Angiogenesis in prostate cancer is predominantly dependent upon vascular endothelial growth factor (VEGF). Testosterone is a potent inducer of VEGF in the prostate (Häggström et al 1999 J Urol. 161, 1620-1625) and re-expression of VEGF in androgen independent tumours is consistent with the re-expression of androgen-regulated genes (Gregory et al 1998 Cancer Res. 58, 5718-5724). Expression of VEGF is associated with androgen independence (Mitsiades et al 2001 Expert Opin Investig Drugs. 10, 1099-1115) and aggressive metastatic disease (Harper et al 1998 J Pathol. 186, 169-177; Balbay et al 1999 Clin Cancer Res. 5, 783-789; Melnyk et al 1999 J Urol. 161, 960-963).

## CC(C)(c1ccc(OCC(O)CO)cc1)c1ccc(OCC(O)CCl)cc1 (stereo not shown) [185-9-2, BADGE.HCL.H2O]
[1]
  PRE-luciferase activity in response to ligand: did NOT inhibit; also recorded: does NOT inhibit
[2]
  androgen-stimulated N/C interaction: inhibit androgen-stimulated N/C interaction
VEGF
  VEGF protein in LNCaP xenografts: decreased levels of vascular endothelial growth factor (VEGF) protein
VEGF; listed as PNG01-185-017-9-2
  VEGF protein in LNCaP xenografts: inhibited the expression of VEGF
